Read-outs that look alike come from different tables or passages of the source. Where a SMILES comes first, the peptide text is derived from it. The star is where a group is joined. Cbz = O=C(OCc1ccccc1)*

Assay [1] relates to SARS-CoV-2 pseudoviruses in cells expressing hACE2. In words: microbe, parasite or virus in culture. Type of assay: cell-based. The note with it: Severe acute respiratory syndrome coronavirus 2, HEK-293T, read-out: EC50 Pseudovirus entry assay hACE2.
For assay [2], the system named is SARS-CoV-2 pseudoviruses in cells expressing hACE2 plus TMPRSS2. In words: microbe, parasite or virus in culture. Type of assay: cell-based. The settings on record: Severe acute respiratory syndrome coronavirus 2, HEK-293T, read-out: EC50 Pseudovirus entry assay hACE2+ TMPRSS2.
For assay [3], the target named is T1, thrombin (Homo sapiens, UniProt P00734).
T1 construct: purchased AnaSpec
In words: biochemical.

In assay [4] the test system is chymotrypsin. Type of assay: biochemical, human.
The target in assay [5] is T2, neutrophil elastase (Homo sapiens, UniProt P08246).
T2 construct: purchased Sigma-Aldrich
T2 sequence (P08246 30-267): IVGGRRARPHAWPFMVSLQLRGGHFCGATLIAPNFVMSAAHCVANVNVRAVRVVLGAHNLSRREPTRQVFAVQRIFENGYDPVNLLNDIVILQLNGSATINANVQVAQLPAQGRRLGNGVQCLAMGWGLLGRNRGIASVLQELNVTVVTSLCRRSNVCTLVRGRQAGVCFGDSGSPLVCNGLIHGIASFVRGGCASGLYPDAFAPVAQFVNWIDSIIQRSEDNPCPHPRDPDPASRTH
In words: biochemical.

Assay [6] has as its target T3, cathepsin B (Homo sapiens, UniProt P07858).
T3 construct: purchased Abcam
Briefly: biochemical.

The target in assay [7] is T4, cathepsin D (Homo sapiens, UniProt P07339).
T4 construct: purchased Abcam
In words: biochemical.

Assay [8] deals with T5, cathepsin G (Homo sapiens, UniProt P08311).
T5 construct: purchased Novus Biological
T5 sequence (P08311 21-255): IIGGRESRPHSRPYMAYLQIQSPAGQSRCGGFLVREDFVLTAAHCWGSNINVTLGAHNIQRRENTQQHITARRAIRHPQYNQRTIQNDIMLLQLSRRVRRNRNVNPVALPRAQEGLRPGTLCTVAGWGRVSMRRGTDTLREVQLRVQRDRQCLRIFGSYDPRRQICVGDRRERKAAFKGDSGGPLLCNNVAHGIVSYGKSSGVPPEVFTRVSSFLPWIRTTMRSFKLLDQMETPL
In words: biochemical.

Assay [9] has as its target T6, cathepsin L (Homo sapiens, UniProt P07711).
T6 construct: purchased AnaSpec
Briefly: biochemical.

Assay [10] addresses T7, SARS-CoV-2 3CLpro (Severe acute respiratory syndrome coronavirus 2, UniProt P0DTD1). The note with it: read-out: IC50 SARS-CoV-2 (3CLpro); cited from earlier work.
Assay [11] has as its target T8, MERS-CoV 3CLpro (Middle East respiratory syndrome-related coronavirus, UniProt K9N7C7). The note with it: read-out: IC50 MERS-CoV (3CLpro); cited from earlier work.
The test system of assay [12] is SARS-CoV-2 replicon. The settings on record: cited from earlier work.
The target of assay [13] is T7, SARS-CoV-2 3CLpro. In words: biochemical.
Assay [14] addresses T8, MERS-CoV 3CLpro. In words: biochemical.
Assay [15] concerns SARS-CoV-2 replicon. Briefly: microbe, parasite or virus in culture. It counts as cell-based. The note with it: Severe acute respiratory syndrome coronavirus 2, read-out: EC50 SARS-CoV-2 replicon. In general terms: In antiviral work, replicon cells carry a viral genome segment that copies itself.

T6 sequence (P07711 114-333): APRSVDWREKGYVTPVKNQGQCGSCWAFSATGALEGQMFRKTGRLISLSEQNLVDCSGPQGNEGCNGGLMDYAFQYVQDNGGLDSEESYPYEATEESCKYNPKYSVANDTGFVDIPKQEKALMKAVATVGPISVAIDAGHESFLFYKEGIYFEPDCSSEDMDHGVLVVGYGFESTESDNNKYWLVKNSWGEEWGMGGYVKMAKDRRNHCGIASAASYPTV
T4 sequence (P07339 65-412): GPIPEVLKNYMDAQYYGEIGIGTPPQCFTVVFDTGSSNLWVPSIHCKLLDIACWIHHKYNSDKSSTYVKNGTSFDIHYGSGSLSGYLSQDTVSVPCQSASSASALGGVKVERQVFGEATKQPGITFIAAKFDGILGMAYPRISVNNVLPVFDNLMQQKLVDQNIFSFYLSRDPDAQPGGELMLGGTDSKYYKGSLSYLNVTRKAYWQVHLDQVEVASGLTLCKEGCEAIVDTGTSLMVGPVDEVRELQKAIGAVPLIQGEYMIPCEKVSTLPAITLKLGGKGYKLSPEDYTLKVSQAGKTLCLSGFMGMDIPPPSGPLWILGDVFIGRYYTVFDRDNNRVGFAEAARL
T8 sequence (K9N7C7 3248-3553 limits assumed): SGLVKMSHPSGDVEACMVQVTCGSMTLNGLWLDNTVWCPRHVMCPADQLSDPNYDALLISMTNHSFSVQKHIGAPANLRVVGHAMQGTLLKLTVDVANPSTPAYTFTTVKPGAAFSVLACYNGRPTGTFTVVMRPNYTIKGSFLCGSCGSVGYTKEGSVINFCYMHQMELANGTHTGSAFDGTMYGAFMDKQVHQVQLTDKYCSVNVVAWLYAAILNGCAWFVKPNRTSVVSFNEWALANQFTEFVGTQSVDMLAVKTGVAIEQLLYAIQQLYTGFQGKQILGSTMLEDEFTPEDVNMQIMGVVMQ

Take `CC(C)CC(NC(=O)OCC1CC1c1cccc(F)c1)C(=O)NC(C=O)CC1CCNC1=O` (stereo not shown) [5c]: the EC50 (in general, the concentration needed to bring the measured effect to its halfway point) in assay [1] is 60 ± 30 nM; in [2] it was greater than 50000 nM; in assay [12], 12 nM. The IC50 – broadly, the point on the concentration scale where inhibition reaches its midpoint – in [3] was greater than 50000 nM; in assay [4], greater than 50000 nM; in assay [5], greater than 50000 nM; in assay [6], 240 ± 50 nM; in assay [7] it was greater than 50000 nM; in [8], greater than 50000 nM. The IC50 was 30 ± 10 nM in [9], 180 ± 30 nM in assay [10] and 80 ± 30 nM in assay [11].
In the case of `CC(C)CC(NC(=O)OCC1CC1c1cccc(F)c1)C(=O)NC(CC1CCNC1=O)C(O)S(=O)(=O)O` (stereo not shown) [5d], the EC50 in assay [1] is 50 ± 20 nM; in assay [2], greater than 50000 nM. Besides, the IC50 was greater than 50000 nM in assay [3]; greater than 50000 nM in assay [4]; greater than 50000 nM in assay [5]; 230 ± 80 nM in assay [6]; greater than 50000 nM in [7]; greater than 50000 nM in assay [8]. Besides, the IC50 in [9] is 20 ± 20 nM; in assay [10] it was 190 ± 20 nM; in [11], 70 ± 30 nM.
On to `COc1ccccc1C1CC1COC(=O)NC(CC(C)C)C(=O)NC(C=O)CC1CCNC1=O` (stereo not shown) [11c], for which the EC50 in assay [1] was 130 ± 30 nM; in assay [2], greater than 50000 nM. Moreover, the IC50 in assay [3] is greater than 50000 nM; in assay [4] it was greater than 50000 nM; in assay [5] it was greater than 50000 nM; in assay [6] it was 310 ± 50 nM; in [7] it was greater than 50000 nM; in assay [8] it was greater than 50000 nM. Further, the IC50 in assay [9] was 30 ± 10 nM; in assay [10], 140 ± 40 nM; in assay [11], 120 ± 110 nM.
Consider `COc1ccccc1C1CC1COC(=O)NC(CC(C)C)C(=O)NC(CC1CCNC1=O)C(O)S(=O)(=O)O` (stereo not shown) [11d], for which the EC50 was 120 ± 50 nM in assay [1], greater than 50000 nM in assay [2] and 12 nM in assay [12]. For the same molecule, the IC50 in assay [3] is greater than 50000 nM; in assay [4], greater than 50000 nM; in assay [5], greater than 50000 nM; in [6], 270 ± 60 nM; in assay [7], greater than 50000 nM; in assay [8] it was greater than 50000 nM. Besides, the IC50 in assay [9] is 20 ± 20 nM; in assay [10], 140 ± 50 nM; in assay [11], 70 ± 10 nM.
As for `CC(C)[C@H](NC(=O)OCc1ccccc1)C(=O)N[C@H](C=O)Cc1ccccc1` [MDL28170] (Cbz-Val-Phe-aldehyde), the IC50 in [13] and in [14] was greater than 50000 nM in each case. Further, the EC50 is greater than 50000 nM in assay [15], 10 ± 30 nM in [1] and greater than 50000 nM in assay [2].
Take `N=C(N)c1ccc2cc(OC(=O)c3ccc(N=C(N)N)cc3)ccc2c1` [Nafamostat]: the IC50 in assay [13] and in [14] was greater than 50000 nM throughout. The EC50 in assay [15] and in assay [1] was greater than 50000 nM in each case.

These data come from article PMC10865860 (mBio, 2023).
